The source of these data is ChEMBL document CHEMBL5512597, “Triazole hybrid compounds: A new frontier in malaria treatment” (Eur J Med Chem, 2023).

Common to all, as to assay type: functional, organism-based
For test [1], the system named is Plasmodium falciparum. The test is described as follows: Antimalarial activity against Plasmodium falciparum 3D7 infected in A+ human erythrocytes assessed as reduction in parasite growth incubated for 72 hrs by SYBR Green I staining based analysis. The note with it: 3D7, Erythrocyte.
Test [2] relates to Plasmodium falciparum. The test is described as follows: Antimalarial activity against Plasmodium falciparum Dd2 infected in A+ human erythrocytes assessed as reduction in parasite growth incubated for 72 hrs by SYBR Green I staining based analysis. The note with it: Dd2, Erythrocyte.
In test [3] the test system is Plasmodium falciparum. The test is described as follows: Antimalarial activity against Plasmodium falciparum K1 infected in A+ human erythrocytes assessed as reduction in parasite growth incubated for 72 hrs by SYBR Green I staining based analysis. As to conditions: K1, Erythrocyte.
The test system of test [4] is Plasmodium falciparum. The test is described as follows: Antimalarial activity against Plasmodium falciparum assessed as parasite growth inhibition incubated for 36 to 40 hrs by JSB staining based analysis.
The subject of test [5] is Plasmodium falciparum. Nature of the test: Antimalarial activity against Plasmodium falciparum.
Test [6] relates to Plasmodium falciparum. The test is described as follows: Antiplasmodial activity against CQ-sensitive Plasmodium falciparum NF54.

Values after ≈ are worked out from the molar mass of the structure shown.

The term EC50 denotes the concentration that produces a half-maximal response. As to `C[C@H]1[C@@H](OCCCn2cc(-c3ccnc4cc(Cl)ccc34)nn2)O[C@@H]2O[C@@]3(C)CC[C@H]4[C@H](C)CC[C@@H]1[C@@]24OO3`, the EC50 is 9.4 nM in test [1], 5.2 nM in test [2] and 3.8 nM in test [3].

For `Cc1nc(-c2ccccc2)c(-c2ccccc2)c2cc(-c3cn(CCOC(=O)CCC(=O)O[C@@H]4O[C@@H]5O[C@]6(C)O[C@]57[C@@H](CC[C@@H](C)[C@@H]7C[C@H]6O)[C@H]4C)nn3)ccc12`, the EC50 in test [1] is 646 nM; in test [2], 444 nM; in test [3], 256 nM. The IC50 is the midpoint of a concentration-inhibition curve. Consider `Cc1cccc(COc2ccc(-n3cc(COc4cc(=O)oc5ccccc45)nn3)cc2)c1`, for which, in test [4], the IC50 stood at 1.05 µg/mL (≈ 2.39 µM).

As to `COc1ccc(COC(=O)Cn2cc(CSc3ccc(Br)cc3)nn2)cc1`, the IC50 in test [5] was 178 nM. For `C[C@H]1[C@H](OCc2cn(-c3ccnc4cc(Cl)ccc34)nn2)O[C@@H]2O[C@@]3(C)CC[C@H]4[C@H](C)CC[C@@H]1[C@@]24OO3`, the EC50 in test [1] was 27.5 nM; in test [2], 10.6 nM; in test [3], 5.9 nM. For `C[C@H]1[C@H](OC(=O)CCC(=O)OCCCc2cn(-c3ccnc4cc(Cl)ccc34)nn2)O[C@@H]2O[C@@]3(C)CC[C@H]4[C@H](C)CC[C@@H]1[C@@]24OO3` the same measures were 5.4 nM, 4.6 nM and 2.4 nM.

`CC1=C(C(=O)Nc2ccc(F)cc2)C(c2ccc(OCc3cn(Cc4ccccc4)nn3)cc2)n2ncnc2N1` (configuration not stated) came in with an IC50 in test [5] of 4360 nM. As for `C[C@H]1[C@H](OC(=O)CCC(=O)OCc2cn(-c3ccnc4cc(Cl)ccc34)nn2)O[C@@H]2O[C@@]3(C)CC[C@H]4[C@H](C)CC[C@@H]1[C@@]24OO3`, in test [1], the EC50 came out at 5.3 nM. In test [5], `CC1=C(C(=O)Nc2ccc(C(F)(F)F)cc2)C(c2ccc(OCc3cn(Cc4ccccc4)nn3)cc2)n2ncnc2N1` (configuration not stated) showed an IC50 of 820 nM. On the same count and under the same terms, the result for `CC1=C(C(=O)Nc2ccccc2C)C(c2ccc(OCc3cn(Cc4ccccc4)nn3)cc2)n2c(nc3ccccc32)N1` (configuration not stated) reads 1530 nM; that for `CC1=C(C(=O)Nc2ccc(Cl)cc2)C(c2ccc(OCc3cn(Cc4ccccc4)nn3)cc2)n2c(nc3ccccc32)N1` (configuration not stated), 1690 nM; that for `CC1=C(C(=O)Nc2cccc(Cl)c2)C(c2ccc(OCc3cn(Cc4ccccc4)nn3)cc2)n2c(nc3ccccc32)N1` (configuration not stated), 3120 nM.

In test [6], `Clc1ccc2c(-n3cc(-c4ccccn4)nn3)ccnc2c1` had a concentration for half-maximal inhibition (IC50) of 28000 nM.

As for `O=c1ccc2ccc(OCc3cn(-c4ccc(OCc5ccc(F)cc5)cc4)nn3)cc2o1`, in test [4], the concentration for half-maximal inhibition (IC50) worked out at 0.49 µg/mL (≈ 1.11 µM).

Regarding `CC1=C(C(=O)Nc2ccc(C)cc2)C(c2ccc(OCc3cn(Cc4ccccc4)nn3)cc2)n2ncnc2N1` (configuration not stated), the IC50 in test [5] was determined as 1840 nM. On the same count and under the same terms, for `CC1=C(C(=O)Nc2ccc(C(F)(F)F)cc2)C(c2ccc(OCc3cn(Cc4ccccc4)nn3)cc2)n2c(nc3ccccc32)N1` (configuration not stated) the value was 2860 nM.

Regarding `C=C[C@H]1CN2CC[C@H]1C[C@H]2[C@H](O)c1ccnc2ccc(OC)cc12` [QUININE], the 50% inhibitory concentration (IC50) was 0.268 µg/mL (≈ 0.826 µM) in test [4] and 83 nM in test [5].

Turning to `C[C@H]1[C@H](OC(=O)CCC(=O)OCCc2cn(-c3ccnc4cc(Cl)ccc34)nn2)O[C@@H]2O[C@@]3(C)CC[C@H]4[C@H](C)CC[C@@H]1[C@@]24OO3`, the EC50 in test [1] amounted to 8 nM; in test [2] it was 4.9 nM; in test [3], 2.6 nM. In turn, `CC1=C(C(=O)Nc2ccc(Cl)cc2)C(c2ccc(OCc3cn(Cc4ccccc4)nn3)cc2)n2ncnc2N1` (configuration not stated) gave an IC50 in test [5] of 1680 nM. On to `C[C@H]1[C@H](OC(=O)CCC(=O)OCCCCc2cn(-c3ccnc4cc(Cl)ccc34)nn2)O[C@@H]2O[C@@]3(C)CC[C@H]4[C@H](C)CC[C@@H]1[C@@]24OO3`, for which the EC50 in test [1] was determined as 6.2 nM; in test [2] it was 4.4 nM; in test [3], 2.5 nM. For `C[C@H]1[C@@H](OCCc2cn(-c3ccnc4cc(Cl)ccc34)nn2)O[C@@H]2O[C@@]3(C)CC[C@H]4[C@H](C)CC[C@@H]1[C@@]24OO3` the same measures were 8.8 nM, 4.5 nM and 2 nM. On to `C[C@H]1[C@@H](OCc2cn(-c3ccnc4cc(Cl)ccc34)nn2)O[C@@H]2O[C@@]3(C)CC[C@H]4[C@H](C)CC[C@@H]1[C@@]24OO3`, for which, in test [1], the EC50 was determined as 9 nM. On to `O=c1ccc2ccc(OCc3cn(-c4ccc(OCc5ccc([N+](=O)[O-])cc5)cc4)nn3)cc2o1`, for which, in test [4], the half-maximal inhibitory concentration (IC50) was 1.2 µg/mL (≈ 2.55 µM). For `CC1=C(C(=O)Nc2ccccc2Cl)C(c2ccc(OCc3cn(Cc4ccccc4)nn3)cc2)n2c(nc3ccccc32)N1` (configuration not stated), the IC50 in test [5] is 2110 nM. Regarding `CCCCc1nc(C)c2ccc(-c3cn(CCOC(=O)CCC(=O)O[C@@H]4O[C@@H]5O[C@@]6(C)CC[C@H]7[C@H](C)CC[C@@H]([C@H]4C)[C@@]57OO6)nn3)cc2c1CCCC`, the concentration giving a half-maximal response (EC50) in test [1] stood at 9.2 nM; in test [2] it was 10 nM; in test [3], 4.2 nM.

As for `Cc1nc(-c2ccccc2)c(-c2ccccc2)c2cc(-c3cn(CCOC(=O)CCC(=O)O[C@@H]4O[C@@H]5O[C@@]6(C)CC[C@H]7[C@H](C)CC[C@@H]([C@H]4C)[C@@]57OO6)nn3)ccc12`, the figures for the EC50 in test [1], in test [2] and in test [3] were 5.3 nM, 4.8 nM and 3.3 nM, respectively. On to `Cc1ccc(COc2ccc(-n3cc(COc4ccc5ccc(=O)oc5c4)nn3)cc2)cc1`, for which, in test [4], the IC50 came out at 0.38 µg/mL (≈ 0.865 µM).

Turning to `CC1=C(C(=O)Nc2ccccc2C)C(c2ccc(OCc3cn(Cc4ccccc4)nn3)cc2)n2ncnc2N1` (configuration not stated), the IC50 in test [5] is 1860 nM. As for `C[C@H]1[C@@H](OCCCCc2cn(-c3ccnc4cc(Cl)ccc34)nn2)O[C@@H]2O[C@@]3(C)CC[C@H]4[C@H](C)CC[C@@H]1[C@@]24OO3`, the EC50 was found to be 8.4 nM in test [1], 6.1 nM in test [2] and 3.7 nM in test [3]. Take `O=C(Cn1cc(CSc2ccc(Br)cc2)nn1)OCc1ccc([N+](=O)[O-])cc1`: the IC50 in test [5] was determined as 184 nM. On to `CC1=C(C(=O)Nc2ccc(F)cc2)C(c2ccc(OCc3cn(Cc4ccccc4)nn3)cc2)n2c(nc3ccccc32)N1` (configuration not stated), for which the IC50 in test [5] amounted to 990 nM. Same read-out and setting: for `CC1=C(C(=O)Nc2cccc(Cl)c2)C(c2ccc(OCc3cn(Cc4ccccc4)nn3)cc2)n2ncnc2N1` (configuration not stated) the value was 2240 nM; for `CC1=C(C(=O)Nc2ccc(C)cc2)C(c2ccc(OCc3cn(Cc4ccccc4)nn3)cc2)n2c(nc3ccccc32)N1` (configuration not stated), 1920 nM. Turning to `O=c1ccc2ccc(OCc3cn(-c4ccc(OCc5ccc(Cl)cc5)cc4)nn3)cc2o1`, the IC50 in test [4] was determined as 0.86 µg/mL (≈ 1.87 µM).

As to `O=c1cc(OCc2cn(-c3ccc(OCc4cccc([N+](=O)[O-])c4)cc3)nn2)c2ccccc2o1`, in test [4], the IC50 worked out at 0.6 µg/mL (≈ 1.28 µM).

Consider `CC1=C(C(=O)Nc2ccccc2)C(c2ccc(OCc3cn(Cc4ccccc4)nn3)cc2)n2c(nc3ccccc32)N1` (configuration not stated), for which the half-maximal inhibitory concentration (IC50) in test [5] amounted to 1660 nM.

In test [5], `CC1=C(C(=O)Nc2ccccc2)C(c2ccc(OCc3cn(Cc4ccccc4)nn3)cc2)n2ncnc2N1` (configuration not stated) displayed an IC50 of 3120 nM.

On to `CC1=C(C(=O)Nc2ccccc2Cl)C(c2ccc(OCc3cn(Cc4ccccc4)nn3)cc2)n2ncnc2N1` (configuration not stated), for which the IC50 in test [5] came to 1680 nM. Regarding `O=c1ccc2ccc(OCc3cn(-c4ccc(OCc5ccc(Br)cc5)cc4)nn3)cc2o1`, in test [4], the IC50 was found to be 0.54 µg/mL (≈ 1.07 µM). The same measure, in the same setting: the result for `Cc1ccccc1COc1ccc(-n2cc(COc3cc(=O)oc4ccccc34)nn2)cc1` reads 0.53 µg/mL (≈ 1.21 µM); that for `O=c1cc(OCc2cn(-c3ccc(OCc4ccccc4[N+](=O)[O-])cc3)nn2)c2ccccc2o1`, 0.98 µg/mL (≈ 2.08 µM).
